# Measurements: article PMC8881063 (Journal of Enzyme Inhibition and Medicinal Chemistry, 2022)
# “Also recorded” adds a separate entry of the source.
# Columns and labels:
# recombinant human MAO-A = target: T1, recombinant human MAO-A (Homo sapiens, UniProt P21397); experiment: hMAO-A inhibition, spectrophotometric assay; assay type: biochemical
# T1 sequence (P21397 1-527): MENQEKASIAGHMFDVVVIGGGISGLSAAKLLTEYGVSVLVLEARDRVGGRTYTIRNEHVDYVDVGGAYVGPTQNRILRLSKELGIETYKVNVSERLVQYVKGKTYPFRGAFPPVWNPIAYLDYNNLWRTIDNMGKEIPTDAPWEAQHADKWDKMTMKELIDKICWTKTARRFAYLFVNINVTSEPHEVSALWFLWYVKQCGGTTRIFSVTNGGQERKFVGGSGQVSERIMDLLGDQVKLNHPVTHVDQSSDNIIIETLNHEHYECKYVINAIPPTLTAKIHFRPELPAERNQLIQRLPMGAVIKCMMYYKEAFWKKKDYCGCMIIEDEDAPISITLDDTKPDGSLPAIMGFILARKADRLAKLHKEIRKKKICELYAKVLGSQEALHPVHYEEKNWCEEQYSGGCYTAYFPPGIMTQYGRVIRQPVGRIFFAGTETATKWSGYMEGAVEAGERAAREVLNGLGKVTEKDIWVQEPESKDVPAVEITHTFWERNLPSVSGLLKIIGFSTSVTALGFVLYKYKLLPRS
# Description: Two different MAO isoforms are known.
# BV2 cells = experiment: BV2 cell viability, WST-1 assay; assay type: cell-based; details: doses of 1, 10, 30 and 50 µM
# Description: Promising antineurodegenrative candidate molecules should not impair viability of CNS cells. Microglia are critical cells within CNS involved in microglia–neuron communications and are responsible for maintenance of brain integrity and health[61]^,[62]. However, under neuroinflammatory conditions, aberrant activation of microglia contributes to neurodegeneration and disease progression. In this regard, suppression of the abnormal activation while maintenance of viability of microglia is important considerations. […] The viability assay was carried out using the water-soluble tetrazolium reagent WST-1 which eliminates the formazan dissolution step requested in case of MTT[65] employing multiple doses of 1, 10, 30, and 50 µM. […] In lieu of this, it might be inferred that these compounds showing effective inhibition of MAO-B activity and triggering no impairment of microglia viability are good candidates might be advanced for further evaluation towards the development of multifunctional molecules for neurodegenerative diseases such as PD.
# The impact of the compounds on the viability of cells was performed by the well-known WST-1 assay method as described in the Supporting information.
# [1] = test system: LPS-treated BV2 cells (NO production); experiment: LPS-induced production of nitric oxide in BV2 cells; assay type: cell-based; details: different concentrations, Figure 3(A)
# Description: (§1) Neuroinflammation is a crucial component in neurodegenerative diseases. Chronic activation of microglia, which are the brain-resident form of macrophages, results in sustained production of several proinflammatory mediators including glial NO, PGE2, and others molecules that are implicated in multiple neurodegenerative diseases. […] In this regard, LPS-treated BV2 cells were incubated with or without different concentrations of each compound. […] Based on collective results of antineuroinflammatory activity evaluation, in conjugation with above-conducted MAO inhibitions’ assays, compound 1p might be claimed as a promising lead compound eliciting polypharmacological effects combining inhibition of neuroinflammation and MAO-B activity; both processes are crucial components of neurodegenerative diseases such as PD.
# (§2) The abilities of compounds to inhibit the induced production of NO and PGE2 were assessed by well-known protocol as indicated in the Supporting information.
# [2] = test system: LPS-treated BV2 cells (PGE2 production); experiment: LPS-induced production of PGE2 in BV2 cells; assay type: cell-based; details: different concentrations, Figure 3(B)
# Description: as §1, §2
# MAO-B [3] = target: T2, MAO-B (Homo sapiens, UniProt P27338); experiment: MAO-B inhibition kinetic study (Michaelis–Menten, Lineweaver–Burk); assay type: biochemical
# T2 sequence (P27338 1-520): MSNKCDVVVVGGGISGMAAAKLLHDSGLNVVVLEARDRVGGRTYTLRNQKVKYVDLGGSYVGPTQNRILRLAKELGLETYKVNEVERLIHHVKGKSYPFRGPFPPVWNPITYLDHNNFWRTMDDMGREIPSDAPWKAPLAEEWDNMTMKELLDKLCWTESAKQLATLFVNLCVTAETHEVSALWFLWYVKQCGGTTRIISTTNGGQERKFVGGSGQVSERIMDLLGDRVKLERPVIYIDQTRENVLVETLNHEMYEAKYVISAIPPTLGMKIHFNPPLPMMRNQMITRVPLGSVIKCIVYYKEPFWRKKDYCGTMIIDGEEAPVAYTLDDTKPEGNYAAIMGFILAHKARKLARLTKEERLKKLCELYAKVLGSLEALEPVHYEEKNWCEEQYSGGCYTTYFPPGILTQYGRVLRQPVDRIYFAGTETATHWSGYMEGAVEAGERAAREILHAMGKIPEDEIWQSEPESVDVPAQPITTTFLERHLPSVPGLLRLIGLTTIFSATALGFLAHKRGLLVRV
# Description: (§3) To get insights into MAO-B inhibition reaction by compounds 1p and 1y, a kinetic study and reversibility testing were conducted. As illustrated in Figure 4(A,B), Michaelis–Menten graphs were constructed using different concentrations of compounds 1p and 1y employing different concentrations benzylamine as a substrate.
# (§4) Kinetics of the inhibition of MAO-B and testing of reversibility were conducted according to literature-reported protocols[59] as indicated in the Supporting information.
# MAO-B [4] = target: T2, MAO-B; experiment: MAO-B inhibition reversibility testing (washing); assay type: biochemical; details: enzymatic activity after washing
# Description: as §3, §4
# MAO-B [5] = target: T2, MAO-B; experiment: hMAO-B inhibition, spectrophotometric assay
# Description: The inhibitory activities of the compounds against hMAO-A and hMAO-B enzymes were evaluated referring to a previously described method (Supporting information)[49].
smiles,measurement,setting,value
COc1ccc(/C=C2\Oc3cc(O)ccc3C2=O)c(OC)c1OC [Compound 1p],IC50,recombinant human MAO-A,> 100000 nM
same,inhibition at 10 µM,recombinant human MAO-A; single dose concentration of 10 µM,-1.53%
same,Impact on viability of BV2 cells,BV2 cells,none of the tested concentrations
same,Effect on LPS-induced NO production by BV2 cells,[1],significant inhibition of NO production
same,Effect on LPS-induced PGE2 production by BV2 cells,[2],effectively suppressed the induced-PGE2 production
same,Type of MAO-B inhibition,MAO-B [3]; Lineweaver–Burk plots,competitive inhibitors; also recorded: Competitive inhibition
same,Ki,MAO-B [3]; benzylamine as substrate,36.5 nM
same,Reversibility of MAO-B inhibition,MAO-B [4],washing restored the enzymatic activity
same,IC50,MAO-B [5],171 nM
same,Selectivity index for inhibition of MAO-B,MAO-B [5]; IC50 MAO-A divided by IC50 MAO-B,>583
same,inhibition at 10 µM,"MAO-B [5]; read-out: MAO-B % Inhibition, single dose concentration of 10 µM",96.7%
